Source: US12545653B2, “Compound as PPAR agonist and application thereof” (USA Elixiria Biotech Inc., priority 2019, dated 2026)

Tests used:
HEK 293T cells = experiment: Inhibition of reactive oxygen species production (ROS-Glo H2O2 Assay); format: cell-based, human; conditions: 18 hours incubation; for inhibition of active oxygen production (up to), compared to the DMSO control: 0-30 micromole/L; for EC50: Homo sapiens, HEK-293T, 18 h
Method: Mitochondrial reactive oxygen species-induced oxidative stress is the source of many diseases. This experiment is used to test whether the carbonyl-containing cyclic compounds provided by the present invention can reduce the production of reactive oxygen species. HEK 293T cells were divided into 96-well plates at 5000 cells per well, cultured in a 37° C. carbon dioxide incubator with serum-free Duchenne's Modified Eagle's Medium (DMEM) for 6 hours, and then representatives for compounds listed in Table 2 and 3 were added to a final concentration of 0, 0.1, 0.3, 1, 3, 10, 30 micromole/L, with each concentration in triplicate. After 18 hours of incubation, the reactive oxygen species detection kit (ROS-Glo™ H2O2 Assay) and the GloMax microplate fluorescence detector (Promega, USA) were used to detect reactive oxygen species production. At the same time, pioglitazone was used as a control. The amount of fluorescence is positively related to the production of reactive oxygen species. A three-parameter Sigmoid function curve was used to fit the obtained data. The abscissa represents the logarithmic value of the concentration, and the ordinate represents the percentage of reduced reactive oxygen species production relative to those of the control. Then EC50 value was calculated with professional software.

[1] = Blood-brain barrier permeability: brain concentration after a single injection; format: in vivo, rat; conditions: for AUC(0-t): male, rat, in vivo, ip, 10 mg/kg
Method: The blood-brain barrier permeability of carbonyl-containing cyclic compounds is determined in in vivo studies. Healthy male rats used in the study were divided into compound group and control group. […] The brains were dissected, heated immediately at boiling water for 2 min, homogenized with methanol, and centrifuged. The upper layer was collected and dried under vacuum to remove solvents, and then resuspended in methanol. The above samples are filtered through a 0.45 micron nylon membrane, and then 20 microL of sample were load into a high-performance liquid chromatographic (HPLC) system (Model LC-16P, Shimadzu, Japan) to perform quantitative analysis.

klotho gene promoter = experiment: In vitro transcriptional activity of klotho gene (KL-Luc-3 luciferase cell line); format: cell-based; conditions: 16 h, KL-Luc-3 cells, 16 hours incubation
Source text: The activities of these carbonyl-containing cyclic compounds are indicated by the increased expression of klotho gene. […] The present invention retains the DNA fragment of the klotho gene promoter, but replaces the DNA sequence of the coding region of the klotho gene with those of luciferase, so that the degree of activation of the klotho gene promoter and the expression of the klotho gene will be sensitively determined by detecting the luciferase luminescence signal.
Klotho is an important downstream gene of PPARγ pathway. The following experiments tested the properties of the compounds in Table 2 and 3 to activate the klotho gene in vitro. First, a stable cell line, KL-Luc, was constructed. The klotho gene carried by the cell line retained the DNA sequence of klotho gene promoter, but the coding sequence of the klotho gene was replaced with luciferase. KL-Luc fragment includes a promoter sequence of the klotho gene (a DNA region of 18,000 base pairs in length upstream of the transcription start site of the gene) and a luciferase-encoding sequence. To construct the KL-Luc sequence containing lentiviral vector, the KL-Luc fragment was cloned into the pDONR vector using BP recombinase, so that the target fragment had attL recombination sites on both sides. Then the KL-Luc fragment was transferred from the pDONR vector to a lentiviral vector (without exogenous promoter) pLenti6/BLOCK-IT-DEST. The constructed lentiviral vector of the target fragment was then transfected into HEK293T cells, and then the KL-Luc gene lentiviral expression vector and the […] were co-transfected into HEK293T cells to perform lentiviral packaging. The virus was harvested, and virus titer was calculated. And the lentivirus was used to infect target cells. The stable strains were screened by adding drugs. Finally, monoclonal cell lines were selected from polyclonal cells by cell cloning. The effective luciferase expression of each monoclonal cell line was determined by quantitative polymerase chain reaction (qPCR). The inventors chose a third monoclonal cell line (KL-Luc-3) to continue the compound screening. The compounds of interest were the compounds in Table 2 and 3. At the same time, rosiglitazone and pioglitazone were used as a control. KL-Luc-3 cells were divided into 96-well plates at 5000 cells in 80 microL per well, cultured in a 37° C. carbon dioxide incubator with serum-free Duchenne's Modified Eagle's Medium (DMEM) for 6 hours, and then the compounds were added to a final concentration of 0, 0.1, 0.3, 1, 3, 10, 30 micromole/L, with each concentration in triplicate. After 16 hours of incubation, the SteadyLite (PerkinElmer, Waltham, MA) and the GloMax Microplate Luminometer (Promega, USA) were used for quantitation of luciferase activity. The amount of luminescence emitted from each well is positively related to the transcriptional activity of the klotho promoter. A three-parameter Sigmoid function curve was used to fit the obtained data. The abscissa represents the logarithmic value of the concentration, and the ordinate represents the percentage of the activity relative to those of the control. […] In Statistical analysis, the coefficient of variation is used to measure the robustness and repeatability of the experiment. […] The difference is significant with P<0.05. EC50 is a parameter of its activity. The lower the EC50 value, the higher the activity of corresponding compound.

APP/PS1 transgenic mice = experiment: Alzheimer's disease model, eight-arm radial water maze and brain gene expression; format: in vivo, mouse; conditions: 30 days in food, 10 mg/kg body weight/day (donepezil 3 mg/kg body weight/day), 5 on the first day
Source text: A common indicator used in academia in memory and dementia experiments is the number of errors in the water maze (reference memory). More errors mean poorer memory. On the last 3 days of dosing, eight-arm radial water maze was used by experimenters who were blind to drug treatment. As a classic experimental instrument, to detect slight deficits in learning and memory, the eight-arm water maze is more sensitive than not only Morris maze, but also Six-arm radial water maze. For details, see reference 8: Alamed J et al. Two-day radial-arm water maze learning and memory task; robust resolution of amyloid-related memory deficits in transgenic mice [J]. […] This experiment uses an eight-arm water maze built in accordance with the above literature. The eight-arm water maze is placed in a basin with an interior diameter of 102 cm. Each arm measures 30 cm long, 14.5 cm wide, and 40 cm high. Escape platform is located at the end of one of the arms. In the reference memory version of the task described here, the goal arm is held constant for all trials, with a different start arm on successive trials. On day one, mice received 12 trials, with trials alternating between visible and hidden platform. On day 2 and 3, mice received 12 additional trials but the platform was kept hidden throughout the trials. Entry into an incorrect arm was scored as a spatial reference error. Errors were averaged into three trial blocks, with four blocks per day, e.g., the first block (the 1st to 3rd trial), the second block (the 4th to 6th trial), and so on. […]. The line charts were made with the number of blocks as the abscissa and the average of the number of errors as the ordinate. At the end of the experiments, the cerebral cortex and hippocampus of the mice were removed, RNA was extracted, and the expression of many genes was analyzed by semi-quantitative RT-PCR. […] The difference is significant with P<0.05.

db−/db− mice = experiment: Diabetic peripheral neuropathy model, Von Frey threshold, sciatic nerve ROS and MDA; format: in vivo, mouse; conditions: in food 10 mg/kg body weight/day (pregabalin 30 mg/kg body weight/day)
Method: Male 5-6 week-old male db^−/db^− mice were used in the experiment, and their normoglycemic heterozygous littermates were used as controls. db^−/db^− is a commonly used type 2 diabetes animal model. The compounds was dissolved in DMSO and mixed into food pellets. The animals were given ad libitum access to the pellets, beginning from 8 to 9 weeks of age for 10 weeks. […] The method for detecting mice hindlimb hypersensitivity is performed using Von Frey filaments. […] The difference is significant with P<0.05. The increase of mitochondrial reactive oxygen species (ROS) in the sciatic nerve of mice, which in turn leads to the increase of intracellular malondialdehyde (MDA), is the etiology of this type of neuropathic pain. The efficacy of compound to treat the root cause of the disease was evaluated by measurement of the levels of MDA and mitochondrial ROS from the sciatic nerves.

[2] = test system: MPTP-HCl Parkinson's disease model mice; experiment: Parkinson's disease model (MPTP-HCl), beam traversal test; conditions: MPTP-HCl/probenecid mice, 5 mg/kg body weight intraperitoneal daily, 35 days
Method: Three month-old male wild type mice were used in the experiment. The treatment lasted for a total of 35 days. […] For all abovementioned groups, Motor skills were assessed on the 36th to 40th days after compound administration. Beam traversal test is a method commonly used in academia to detect movement coordination in animals with Parkinson's disease. […] The mice were first trained for 2 consecutive days, and taught to trained to traverse the length of the beam. On the day of the test, a mesh grid (1 cm squares) of corresponding width was placed over the beam surface leaving a ˜1 cm space between the grid and the beam surface. Animals were then videotaped while traversing the grid-surfaced beam for a total of five trials. An error was counted when, during a forward movement, a forelimb or hindlimb slipped through the grid. The number of errors made per step (referred to as “error per step scores”) was counted. An analysis of variance (ANOVA) and Dunnett post hoc comparison test are used to compare the significance of the differences between different groups of data. The difference is significant with P<0.05.

[3] = test system: dIoN-CCI rat model of trigeminal neuropathic pain; experiment: Trigeminal neuralgia model (dIoN-CCI), Von Frey mechanical threshold; conditions: dIoN-CCI rats
Source text: A common rat model of trigeminal neuralgia is a chronic compression injury model (CCI) caused by ligation of the infraorbital nerve (IoN). In the present study, an improved rat model of trigeminal neuropathic pain was used, in which CCI is induced by ligation of distal segment of IoN (dIoN). Wild type male Sprague-Dawley rats with body weight 250 to 260 grams underwent dIoN-CCI surgery experiments. The mechanical threshold of pain in rats without surgery experiments will exceed 6 grams. If the dIoN-CCI surgery is successful, it will reduce the pain threshold to less than 2 grams.
The mice were divided into the following 11 groups with 4 to 5 mice in each group. The formulation used for transdermal treatment is cream. […] The compound administration of each group starts on the third day after successful dIoN-CCI surgery. […] The method for detecting rat facial hypersensitivity is performed using Von Frey filaments. An analysis of variance (ANOVA) and Dunnett post hoc comparison test are used to compare the significance of the differences between different groups of data. The difference is significant with P<0.05.

PPARγ = molecular target: T1, PPARγ (Homo sapiens, UniProt P37231); experiment: In vitro transcriptional activity of PPARγ gene (PPRE-luciferase reporter, HEK 293 T cells); format: cell-based; conditions: HEK 293 T cells transfected with PPARγ expression and PPRE-luc plasmids, 21 hours; read-out: EC50 of PPARγ gene activation
T1 construct: expressed in transfected cells; host or cells: HEK 293 T cells
T1 sequence (P37231 1-505): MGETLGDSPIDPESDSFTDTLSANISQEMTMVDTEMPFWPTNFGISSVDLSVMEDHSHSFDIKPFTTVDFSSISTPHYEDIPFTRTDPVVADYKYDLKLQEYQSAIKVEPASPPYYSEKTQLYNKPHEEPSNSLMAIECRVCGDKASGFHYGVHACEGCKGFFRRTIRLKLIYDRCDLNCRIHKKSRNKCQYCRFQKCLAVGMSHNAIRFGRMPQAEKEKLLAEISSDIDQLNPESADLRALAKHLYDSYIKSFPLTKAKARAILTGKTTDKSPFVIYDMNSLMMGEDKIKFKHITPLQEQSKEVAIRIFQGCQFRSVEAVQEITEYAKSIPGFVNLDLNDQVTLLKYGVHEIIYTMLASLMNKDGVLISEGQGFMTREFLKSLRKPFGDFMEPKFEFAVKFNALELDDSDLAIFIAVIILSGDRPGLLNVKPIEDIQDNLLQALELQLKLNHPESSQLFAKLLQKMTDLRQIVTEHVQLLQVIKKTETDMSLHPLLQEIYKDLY
Source text: In this experiment, the PPARγ gene was used as target gene to detect the in vitro transcription activity of the compounds. The compounds of interest were detected was first dissolved with dimethyl sulfoxide (DMSO). […] First two plasmids were constructed: PPARγ protein expression plasmid and luciferase reporter plasmid. They are both from the lentiviral plasmid pLV-CMVIE-ZsGreen-Puro, whose DNA sequence contains the cytomegalovirus immediate early (CMVie) promoter, ZsGreen and Puro dual reporter. The PPARγ expression plasmid pLV-CMVIE-PPAR[…]-ZsGreen-Puro was constructed by cloning full-length coding sequences of the pertinent receptors into pHBLV-CMVIE-ZsGreen-Puro vector. To construct the luciferase (luc) reporter plasmid pLV-PPRE-luc-ZsGreen-Puro, the CMVie promoter in plasmid pHBLV-CMVIE-ZsGreenPuro was first replaced by a peroxisome proliferator responsive element (PPRE) containing fragments comprised the nucleotide sequence 50-[…], repeated four times in tandem, to generate a new plasmid, at a multiple cloning site of which the luc gene was then inserted. […] The compounds used for screening are representatives for compounds listed in Table 2, and Tables 3 of the present invention. […] Cells were distributed in 10-cm tissue culture plates at a density of 5.5 million cells per plate, and then transfected with the luciferase reporter plasmid (6 nanogram/plate) and the PPARγ expression plasmid (18 nanogram/plate). Cells were cultured for 6 hours. […] Then the cells were distributed in 96-well plates at a density of 20,000 cells per well. After incubation for 6 h, compounds or control with different concentration were placed into each well, resulting in the finical concentration of […] with each concentration in triplicate. Twenty-one hours later, promoter activation was detected by the addition of SteadyLite (PerkinElmer, Waltham, MA) and GloMax 96 Microplate Luminometer (Promega, Madison, WI). The amount of Luminometer emitted from each well is positively correlated with the expression of PPARγ gene. A three-parameter Sigmoid function curve was used to fit the obtained data. The abscissa represents the logarithmic value of the concentration, and the ordinate represents the percentage of PPARγ gene activation relative to those of the control. […] In Statistical analysis, the coefficient of variation is used to measure the robustness and repeatability of the experiment. […] The difference is significant with P<0.05. EC50 is a parameter of its activity.

[4] = compared with healthy control group

Row | AUC(0-t) ([1]; AUC0-6 h) [ng·h/mL] | AUC(0-t) ([1]; AUC0-24 h) [ng·h/mL] | EC50 (klotho gene promoter) [µM] | time to maximum brain concentration (Tmax) ([1]; rat brain, 10 mg/kg intraperitoneal, single injection) [h] | EC50 (PPARγ) [µM] | SMILES | inhibition of active oxygen production (up to), compared to the DMSO control (HEK 293T cells) | EC50 (HEK 293T cells) [µM] | number of errors in water maze on the third day (APP/PS1 transgenic mice) | level of MDA in the sciatic nerve after 10 week treatment (db−/db− mice; [4]) | level of mitochondrial ROS in the sciatic nerve after 10 week treatment (db−/db− mice; [4]) | mechanical pain threshold after 10 week treatment (db−/db− mice; compared with normal control group) | number of errors per step in beam traversal test compared with disease control group [2] | minimum effective anti-allodynic dose ([3]; oral) [mg/kg] | mechanical threshold 2 hours after oral administration ([3]; oral 300 mg/kg body weight, Von Frey) [g]
1 | 774 | 1930 | 9.7 |  |  | CN(CCOc1ccc(CC2SC(=O)NC2=O)cc1)c1ccccn1 (stereo not drawn) [rosiglitazone, reference compound] | up to 58% | 2.5 |  |  |  |  |  |  | 
2 |  |  |  |  |  | CCc1ccc(CCCCc2ccc3c(c2)C(=O)CC3)cc1 [ELB00825, 6-(4-(4-ethylphenyl)butyl)-2,3-dihydro-1H-inden-1-one] |  | < 10 | comparable to that of ELB00824 | reduced | reduced | significantly improved | significantly lower |  | 
3 | 1510 | 3520 |  | 1 |  | CCc1ccc(CCOc2ccc(CC3SC(=O)NC3=O)cc2)nc1 (stereo not drawn) [pioglitazone, reference compound] | up to 42% | 0.7 |  |  |  |  |  | 300 | 4.9 ± 0.9
4 |  |  | < 9.7 |  | < 6.4 | CCc1cccc(CC/C=C/c2ccc3c(c2)C(=O)CC3)c1 [ELB001203, 6-((1E)-4-(3-ethylphenyl)but-1-en-1-yl)-2,3-dihydro-1H-inden-1-one] |  | < 3 |  |  |  |  |  |  | 
